Assay results as given in PubChem BioAssay (NCI).
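These data come from cells grown in 96-well plates and exposed to compound for 48 hours at five concentrations. Definition used: TGI = concentration required for complete inhibition of growth.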

Assays:
Assay in all cases: NCI-60 cell line screen, 48 h
UACC-257 melanoma = system: UACC-257 melanoma
OVCAR-5 ovarian = system: OVCAR-5 ovarian
SK-MEL-28 melanoma = system: SK-MEL-28 melanoma
TK-10 renal = system: TK-10 renal
KM20L2 colon = system: KM20L2 colon
SK-OV-3 ovarian = system: SK-OV-3 ovarian
SK-MEL-2 melanoma = system: SK-MEL-2 melanoma
OVCAR-3 ovarian = system: OVCAR-3 ovarian
SK-MEL-5 melanoma = system: SK-MEL-5 melanoma
HOP-92 NSCLC = system: HOP-92 NSCLC
MALME-3M melanoma = system: MALME-3M melanoma
SF-539 CNS = system: SF-539 CNS
CAKI-1 renal = system: CAKI-1 renal
K-562 leukemia = system: K-562 leukemia
XF 498 CNS = system: XF 498 CNS
SF-295 CNS = system: SF-295 CNS
DLD-1 colon = system: DLD-1 colon
M14 melanoma = system: M14 melanoma
HCT-15 colon = system: HCT-15 colon
HT29 colon = system: HT29 colon
MOLT-4 leukemia = system: MOLT-4 leukemia
786-0 renal = system: 786-0 renal
NCI-H522 lung = system: NCI-H522 lung
HOP-62 NSCLC = system: HOP-62 NSCLC
SNB-78 CNS = system: SNB-78 CNS
SN12C renal = system: SN12C renal
SF-268 CNS = system: SF-268 CNS
LXFL 529 NSCLC = system: LXFL 529 NSCLC
UO-31 renal = system: UO-31 renal
U251 CNS = system: U251 CNS
IGROV1 ovarian = system: IGROV1 ovarian
NCI-H23 lung = system: NCI-H23 lung
SW-620 colon = system: SW-620 colon
KM12 colon = system: KM12 colon
A498 renal = system: A498 renal
DMS 114 small cell lung = system: DMS 114 small cell lung
OVCAR-8 ovarian = system: OVCAR-8 ovarian
HOP-18 NSCLC = system: HOP-18 NSCLC
SNB-19 CNS = system: SNB-19 CNS
ACHN renal = system: ACHN renal
CCRF-CEM leukemia = system: CCRF-CEM leukemia
SNB-75 CNS = system: SNB-75 CNS
HCT-116 colon = system: HCT-116 colon
RPMI-8226 leukemia = system: RPMI-8226 leukemia
HCC-2998 colon = system: HCC-2998 colon
COLO 205 colon = system: COLO 205 colon
A549 NSCLC = system: A549 NSCLC
OVCAR-4 ovarian = system: OVCAR-4 ovarian
NCI-H460 lung = system: NCI-H460 lung
RXF-631 renal = system: RXF-631 renal
RXF 393 renal = system: RXF 393 renal
EKVX NSCLC = system: EKVX NSCLC
UACC-62 melanoma = system: UACC-62 melanoma
M19-MEL melanoma = system: M19-MEL melanoma
HL-60(TB) leukemia = system: HL-60(TB) leukemia

Measured: TGI

COc1ccc(CN(CCN(C)C)c2ccccn2)cc1 (tested in a mixture with another compound)
not listed: HCT-116 colon | RPMI-8226 leukemia | HCC-2998 colon | COLO 205 colon | A549 NSCLC | OVCAR-4 ovarian | NCI-H460 lung | RXF-631 renal | RXF 393 renal | EKVX NSCLC | UACC-62 melanoma | M19-MEL melanoma | HL-60(TB) leukemia
> 100 µM: all other assays above

O=C1NC(=O)C(C(=O)C(=O)Nc2cc(Cl)ccc2Cl)C(=O)N1
not listed: CAKI-1 renal | XF 498 CNS | HT29 colon | SN12C renal | HOP-18 NSCLC
> 100 µM: all other assays above
